The results in this text go back to ChEMBL document CHEMBL1201862, “PubChem BioAssay data set” (2004).

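Cultured in 96-well plates, cells were exposed to test compound for 48 hours across five concentrations. Here, GI50 denotes the concentration required for 50% inhibition of growth.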 Activity calls are given as the source filed them. No stated cut-off is given here; in the data, active = GI50 up to about 1.1 µM and inactive = higher.

Experiment in all cases: NCI anticancer screen, dose series, 48 h
The test system of test [1] is SK-OV-3.
Test [2] concerns KM12.
In test [3] the test system is MDA-MB-231.
Test [4] relates to LOX IMVI.
Test [5] relates to TK-10.
For test [6], the system named is DU-145.
In test [7] the test system is SNB-19.
For test [8], the system named is NCI/ADR-RES.
For test [9], the system named is HT-29.
In test [10] the test system is PC-3.
Test [11] deals with SNB-75.
Test [12] has as its system Malme-3M.
Test [13] concerns A549.
Test [14] concerns HCT-15.
Test [15] has as its system SK-MEL-28.
For test [16], the system named is CAKI-1.
In test [17] the test system is UO-31.
In test [18] the test system is SR.
Test [19] relates to T47D.
Test [20] deals with A498.

Consider `Cc1cc(S(=O)(=O)/N=C2\NCCN2Cc2ccccc2)c(S)cc1Cl`, for which the GI50 in [1], in test [2], in test [3], in test [4], in test [5] and in test [6] was > 100 µM (inactive) each time. Besides, the GI50 in test [7] is > 100 µM (inactive); in test [8] it was > 100 µM (inactive); in test [9] it was > 100 µM (inactive); in test [10], > 100 µM (inactive); in [11], > 100 µM (inactive); in test [12], 43.7 µM (inactive). The GI50 in [13] is > 100 µM (inactive); in [14], over 100 µM; in [15], > 100 µM (inactive); in test [16], > 100 µM (inactive).
With `CC1C(c2ccc3c(c2)OCO3)c2cc3c(cc2OC1N1CCCC1)OCO3` (configuration not stated), the GI50 is 37.7 µM (inactive) in [2]; 34.8 µM (inactive) in [4]; 24.9 µM (inactive) in test [5]; 34.1 µM (inactive) in test [6]; 20.9 µM (inactive) in [7]; 29.2 µM (inactive) in [8]. For the same compound, the GI50 in test [9] is 31 µM (inactive); in test [17], 17.2 µM (inactive); in test [10] it was 32.9 µM (inactive); in [11] it was 15.1 µM (inactive); in test [18], 35.5 µM (inactive); in test [13], 31.3 µM (inactive). Moreover, the GI50 in test [14] was 30 µM; in test [15] it was 37.1 µM (inactive); in [16], 11.6 µM (inactive); in test [19], 35.4 µM (inactive).
On to `CN(C)C1(N(C)C)Oc2c(c(=O)n(C)c(=O)n2C)C(c2ccccc2)C1(F)F` (configuration not stated), for which the GI50 in [1], in test [2], in test [3], in test [4], in test [5] and in test [6] was > 100 µM (inactive) each time. Further, the GI50 in test [7], in test [8], in test [17], in [10], in test [20] and in test [11] was > 100 µM (inactive) in each case. For the same compound, the GI50 in test [13] was > 100 µM (inactive); in test [14], over 100 µM; in test [15], > 100 µM (inactive); in test [16], > 100 µM (inactive); in test [19], > 100 µM (inactive).
`COc1cc(/C=N/n2c(C)n[nH]c2=O)cc(OC)c1OC`: the GI50 in [1] is > 100 µM (inactive); in test [2], 60.1 µM (inactive); in [3], 57.5 µM (inactive); in test [7], > 100 µM (inactive); in test [8] it was > 100 µM (inactive); in test [9], 90.4 µM (inactive). Also, the GI50 is 84.3 µM (inactive) in test [17]; > 100 µM (inactive) in test [10]; 23.4 µM (inactive) in [20]; > 100 µM (inactive) in [11]; > 100 µM (inactive) in test [12]; > 100 µM (inactive) in [13]. The GI50 is over 100 µM in test [14], > 100 µM (inactive) in test [15], > 100 µM (inactive) in test [16] and 71.3 µM (inactive) in [19].
In the case of `CCOC(=O)C(C)(Cc1ccc(O)cn1)NC(=O)c1ccccc1` (configuration not stated), the GI50 in [1], in [2], in [3], in [4], in [5] and in test [6] was > 100 µM (inactive) in each case. The GI50 in [7] was > 100 µM (inactive); in test [8], > 100 µM (inactive); in [9], > 100 µM (inactive); in test [17], > 100 µM (inactive); in [10], > 100 µM (inactive); in test [11], 80.4 µM (inactive). In addition, the GI50 in test [12] was > 100 µM (inactive); in test [18], > 100 µM (inactive); in test [13], > 100 µM (inactive); in test [14], over 100 µM; in test [15] it was > 100 µM (inactive); in test [16], > 100 µM (inactive).
Consider `CCOC(=O)c1[nH]c(-c2[nH]c(-c3[nH]c(-c4[nH]c(C(=O)OCC)c(C)c4C(=O)OCC)c(C(=O)OCC)c3C)c(C)c2C(=O)OCC)c(C(=O)OCC)c1C`, for which the GI50 in test [1], in test [2], in test [3], in test [4], in test [5] and in test [6] was > 100 µM (inactive) throughout. The GI50 in [7], in test [8], in [9], in test [10], in test [20] and in [12] was > 100 µM (inactive) in each case. Also, the GI50 in test [13] was > 100 µM (inactive); in test [14], over 100 µM; in test [15], > 100 µM (inactive); in [16], > 100 µM (inactive); in test [19], > 100 µM (inactive).
`COc1ccc(-c2c(N)n(-c3nc4ccccc4s3)c(=O)c3cc([N+](=O)[O-])ccc23)cc1`: the GI50 was 15.3 µM (inactive) in test [1]; 18.6 µM (inactive) in test [2]; 16.9 µM (inactive) in test [3]; 14.9 µM (inactive) in test [4]; 38.1 µM (inactive) in test [5]; 40.1 µM (inactive) in test [7]. In addition, the GI50 is 17 µM (inactive) in [8]; 49 µM (inactive) in [9]; 16.3 µM (inactive) in test [17]; 30.8 µM (inactive) in test [10]; 74 µM (inactive) in test [20]; 8.43 µM (inactive) in [11]. Moreover, the GI50 in test [12] is 20.7 µM (inactive); in test [18] it was 8.39 µM (inactive); in test [13] it was 11.2 µM (inactive); in [14], 41.8 µM; in [15], > 100 µM (inactive); in test [16] it was 21.3 µM (inactive).
For the compound `Cc1ccc(NC(=O)CCC(=O)C2CC(=O)CC/C2=N\NC(=O)c2cc3ccccc3cc2O)cc1C` (configuration not stated), the GI50 in [1] is 67.9 µM (inactive); in [2], 31.8 µM (inactive); in [5] it was 51.9 µM (inactive); in test [7], 40.7 µM (inactive); in test [9] it was 38.5 µM (inactive); in [17] it was 4.13 µM (inactive). Also, the GI50 was 38.4 µM (inactive) in [20]; 17.1 µM (inactive) in test [11]; 30.4 µM (inactive) in test [12]; 22.1 µM (inactive) in test [18]; 25.1 µM (inactive) in test [13]; 14.7 µM in [14]. Also, the GI50 in test [15] is 65 µM (inactive); in [16] it was 19 µM (inactive).
As for `Oc1c2cc(Cl)cc1COCc1cc(Cl)cc(c1O)COCc1cc(Cl)cc(c1O)COC2`, the GI50 is 59.6 µM (inactive) in test [1]; 84.3 µM (inactive) in test [2]; 36.7 µM (inactive) in [4]; 46.8 µM (inactive) in test [5]; 28.2 µM (inactive) in test [6]; 28 µM (inactive) in test [7]. In addition, the GI50 was 38.8 µM (inactive) in [8]; 32.6 µM (inactive) in [17]; > 100 µM (inactive) in [10]; 82.8 µM (inactive) in [20]; 17.8 µM (inactive) in test [11]; > 100 µM (inactive) in test [18]. The GI50 in [13] is 34.8 µM (inactive); in [14], 36 µM; in [15], > 100 µM (inactive); in [19], 15.7 µM (inactive).
Take `CNC(=O)OCc1nc(N=[N+]=[N-])n(C)c1COC(=O)NC`: the GI50 in [2] is 69.8 µM (inactive); in test [3], 95.5 µM (inactive); in [4], 60.8 µM (inactive); in [5], 32.2 µM (inactive); in test [6] it was 49.8 µM (inactive); in test [8], 69.8 µM (inactive). Also, the GI50 is 58.3 µM (inactive) in test [9]; > 10 µM (inactive) in test [17]; 96.2 µM (inactive) in test [10]; 32.3 µM (inactive) in test [20]; 49 µM (inactive) in test [11]; 55.7 µM (inactive) in [12]. The GI50 is 21.3 µM (inactive) in [18]; 61.7 µM (inactive) in test [13]; 60.4 µM in test [14]; > 100 µM (inactive) in [15]; 20.7 µM (inactive) in [16].
Regarding `O=CN1CCN(C(=O)c2ccc(Cl)cc2Cl)C1=S`, the GI50 in [1] is > 100 µM (inactive); in test [2], 43.2 µM (inactive); in test [3] it was > 100 µM (inactive); in test [4], 32.3 µM (inactive); in test [5], 78.7 µM (inactive); in [6] it was 84.5 µM (inactive). Further, the GI50 was > 100 µM (inactive) in test [7]; > 100 µM (inactive) in test [8]; > 100 µM (inactive) in test [9]; > 100 µM (inactive) in test [10]; 42 µM (inactive) in test [20]; 21 µM (inactive) in [11]. Further, the GI50 in test [12] is > 100 µM (inactive); in [13] it was 67.3 µM (inactive); in test [14], 78.7 µM; in [15], > 100 µM (inactive); in test [16], 41.1 µM (inactive); in test [19] it was 32.4 µM (inactive).
In the case of `C=C1C(=O)C23C(O)CC4C(C)(C)CCC(O)C4(C)C2CC(OC(C)=O)C1[C@H]3O` (some centres not stated), the GI50 is 17.3 µM (inactive) in [1]; 15.8 µM (inactive) in [2]; 3.27 µM (inactive) in test [3]; 0.188 µM (active) in test [4]; 2.22 µM (inactive) in test [5]; > 10 µM (inactive) in test [6]. Besides, the GI50 in test [7] is 8.99 µM (inactive); in [8], 15.3 µM (inactive); in test [9], 0.351 µM (active); in test [17] it was 15.3 µM (inactive); in test [10], 11.4 µM (inactive); in test [20] it was 15.8 µM (inactive). The GI50 in test [11] was 8.61 µM (inactive); in [12] it was 3.37 µM (inactive); in test [18] it was 1.18 µM (inactive); in test [13], 4.06 µM (inactive); in [14], 2.06 µM; in [15] it was 3.39 µM (inactive). Moreover, the GI50 in test [16] is 2.37 µM (inactive).
